Data reported in US20260137701A1, “CHOLESTENOIC ACID (CA) AND A SULFATED DERIVATIVE THEREOF, 3[BETA]-SULFATE-5-CHOLESTENOIC ACID (CA3S), AS ENDOGENOUS EPIGENETIC REGULATORS” (priority 2022, published 2026).

Key:
recombinant DNMT3a = recombinant DNMT3a (Homo sapiens, UniProt Q9Y6K1); assay: DNMT3a enzyme kinetic (activity) assay, 3H-SAM filter; type: biochemical; details: read-out: IC50, inhibits DNMT3a activity
Method: The enzyme kinetic studies were carried out by Reaction Biology Company. For the DNMT1 activity assay, the substrate solution, 0.001 mg/ml Poly(dI-dC): Poly(dI-dC) in 50 mM Tris-HCl, pH 7.5, 50 mM NaCl, 5 mM EDTA, 5 mM DTT, 1 mM PMSF, 5% glycerol, 0.01% Brij™35, 1% DMSO was used. For the DNMT3a/3b activity assay, 0.0075 mg/ml Lambda DNA in 50 mM Tris-HCl, pH 7.5, 50 mM NaCl, 5 mM EDTA, 5 mM DTT, 1 mM PMSF, 5% glycerol, 1% DMSO, was used. The indicated DNMT1, DNMT3a and DNMT3b were added to the appropriate substrate solution and gently mixed. Amounts of CA ranging from 5.08E-09 to 0.0001 M in DMSO were added to the reaction mixture by using Acoustic Technology (Echo® 550, LabCyte Inc. Sunnyvale, CA). The mixtures were first incubated for 15 min, then ^3H-SAM was added to the reaction mixture to initiate the reaction, and the mixture was incubated for 60 min at 30° C. Following incubation, the reaction mixture was finally transferred to filter-paper for detection of radioactivity counts.

[1] = test system: normal primary human hepatocytes (PHH)

Sequence of recombinant DNMT3a (Q9Y6K1 whole entry, looked up): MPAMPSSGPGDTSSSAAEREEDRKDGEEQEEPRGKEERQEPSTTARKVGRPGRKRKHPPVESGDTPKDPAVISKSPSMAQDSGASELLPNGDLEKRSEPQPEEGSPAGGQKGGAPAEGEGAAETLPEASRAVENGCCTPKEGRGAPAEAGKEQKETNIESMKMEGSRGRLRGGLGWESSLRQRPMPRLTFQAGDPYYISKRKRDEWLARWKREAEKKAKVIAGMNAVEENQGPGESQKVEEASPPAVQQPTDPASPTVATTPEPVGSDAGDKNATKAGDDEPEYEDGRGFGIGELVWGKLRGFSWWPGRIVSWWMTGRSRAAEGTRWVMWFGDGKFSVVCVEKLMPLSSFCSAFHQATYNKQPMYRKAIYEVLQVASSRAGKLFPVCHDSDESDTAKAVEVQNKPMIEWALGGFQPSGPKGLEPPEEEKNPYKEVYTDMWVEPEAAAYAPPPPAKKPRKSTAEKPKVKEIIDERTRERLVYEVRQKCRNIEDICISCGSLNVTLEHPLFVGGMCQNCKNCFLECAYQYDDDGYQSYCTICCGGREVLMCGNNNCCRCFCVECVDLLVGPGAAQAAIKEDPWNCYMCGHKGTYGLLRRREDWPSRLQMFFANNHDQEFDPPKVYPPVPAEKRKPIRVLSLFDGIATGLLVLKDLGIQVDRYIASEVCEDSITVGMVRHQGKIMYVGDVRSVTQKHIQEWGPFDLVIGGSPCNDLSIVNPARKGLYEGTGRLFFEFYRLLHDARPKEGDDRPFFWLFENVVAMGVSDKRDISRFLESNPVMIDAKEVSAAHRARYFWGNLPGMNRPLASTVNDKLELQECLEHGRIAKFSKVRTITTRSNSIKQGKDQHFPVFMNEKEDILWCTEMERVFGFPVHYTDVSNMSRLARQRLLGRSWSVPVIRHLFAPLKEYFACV

With `CC(CCC[C@@H](C)[C@H]1CC[C@H]2[C@@H]3CC=C4C[C@@H](O)CC[C@]4(C)[C@H]3CC[C@]12C)C(=O)O` (stereo partly drawn) [CA, 3β-hydroxy-5-cholestenoic acid] the IC50 (recombinant DNMT3a) was 8.41 µM and the “death of normal primary human hepatocytes” value [1] was “not the death”.
